In a melting point compilation (Tetko et al.; mined from patent text by program, amines drawn as free bases though some values may be those of a salt):

SMILES | melting point
CN(O)C(=O)Nc1cccc(NC(=O)N(C)O)c1 | 146 to 147 °C
COc1cc(C)nc(NC(=O)NS(=O)(=O)c2ccsc2S(C)(=O)=O)n1 | 204 to 206 °C
CC(=O)OC1CCN(C2c3cc4nonc4cc3OC(C)(C)C2O)C(=O)C1 (stereo unspecified) | 204 to 206 °C
COc1cc(S(N)(=O)=O)cnc1Cl | 156 to 158 °C
C=C(C(=O)c1ccc(OC)c(OC)c1)c1ccc(F)cc1 | 77 to 78 °C
CC1(C)Cc2ccc(C#N)cc2N(C(=O)Nc2ccccc2)C1 | 170 to 171 °C
O=[N+]([O-])c1c(Cl)c(Cl)cc2nc(Cl)c(Cl)nc12 | 118 to 120 °C
C=C(CC)C(=O)c1cc2c(c(Cl)c1Cl)OC(C(=O)O)C2 (stereo unspecified) | 148 °C
C=C(c1ccc(C(=O)OC)cc1)c1cc2c(cc1C)C(C)(C)CCC2(C)C | 167 to 168 °C
COC1=C(OC)C(=O)C(CCCCCCCCCCCCOC(C)=O)=C(C)C1=O | 47 °C
CCCCC1=NC2(CCCC2)C(=O)N1Cc1ccc(-c2ccccc2S(=O)(=O)Nc2onc(C)c2C)c(OCCOC)c1 | 55 to 58 °C
CCCCc1oc2ccccc2c1-c1ncc(-c2ccc3cc(OC)ccc3c2)o1 | 169 to 171 °C
CCNC(=O)Nc1ccc2[nH]cc(C(=O)O)c(=O)c2c1 | > 320 °C
Cc1ccc(-c2ccc3c(c2)C=C(C(=O)Nc2ccc(C#N)cc2)CCO3)cc1 | 187 to 189 °C
CCOC(=O)C1C=Nc2c(cc(F)cc2[N+](=O)[O-])C1=O (stereo unspecified) | 278 to 280 °C
COc1cc(-c2cc(C(C)C)nn2C)cc2oc(=O)c(C)c(C)c12 | 125 to 126 °C
COCCC(=O)c1cc(C(=O)OC)c(N)cc1C(F)(F)F | 89 to 91 °C
CCCCCS(=O)(=O)NC(=O)c1ccc2[nH]c(C)c(Cc3ccc(SC(C)(C)C)cc3Cl)c2c1 | 185 to 188 °C
CC1(C)Cc2nc(C3CCCC3)c(C(F)c3ccc(C(F)(F)F)cc3)c(-c3ccc(F)c(F)c3)c2C(O)C1 (stereo unspecified) | 149 to 150 °C
CONS(=O)(=O)c1cccc(C)c1 | 90 to 92 °C
Cc1cc(-n2ccc(=O)[nH]c2=O)cc(Cl)c1Sc1ccc(Cl)cc1 | 150 to 160 °C
CCN1CCN(Cc2ccc(NC(=O)Nc3ccc(Oc4cc(Cl)ncn4)cc3)cc2)CC1 | 203 to 204 °C
COc1ccc(C2=NN(C3CCN(C(=O)c4c(Cl)cc(Cl)cc4Cl)CC3)C(=O)CC2)cc1OC | 156 to 159 °C
CCOC(=O)c1c(C)nc2c(c1N)c1ccccc1n2Cc1ccccc1 | 139 to 140 °C
COC(=O)c1nc(Br)ccc1O | 115 to 117 °C
CC(C)CCCC(C)C1CCC2C3CC=C4CC(OC(=O)NCC(=O)N(CCCl)CCCl)CCC4(C)C3CCC12C (stereo unspecified) | 98 to 100 °C

SMILES | melting point
CCCOc1ccc(C)cc1-c1nc2c(CCC)nn(C)c2c(=O)[nH]1 | 115 to 116 °C
COc1ccc(NC(=S)N2CCc3cc(S(=O)(=O)N4CC(c5ccccc5)NC4=O)ccc32)cc1 (stereo unspecified) | 181 to 183 °C
CCOC(=O)C1CC1C(=O)O (stereo unspecified) | 46 °C
NC(=O)CCNC(=O)C1CCCN1C(=O)OCc1ccccc1 (stereo unspecified) | 151 to 152 °C
CCOC(=O)c1cn(C2CC2)c2c(OC(F)F)c(F)c(F)c([N+](=O)[O-])c2c1=O | 262 to 268 °C
Cc1c(/C=C/c2ccccc2)nc2ccc(C(=O)O)cn2c1=O | 312 to 313 °C
O=C1CCC(c2cc(F)c(Br)cc2F)C1 (stereo unspecified) | 63 to 65 °C
COc1cc(C)nc(Nc2ccc(Cl)cc2)n1 | 101 to 103 °C
CCOC(=O)c1c(Cl)c2cscc2[nH]c1=O | 157 °C
Cc1c(CO)c(CO)c2n1Cc1c(c3ccccc3n1C)C2 | 200 to 201 °C
Nc1ccc(S(=O)(=O)NC(=S)NC23CC4CC(CC(C4)C2)C3)cc1 | 176 to 179 °C
COC(=O)C1CCC2C3CCC4CC(O)C=CC4(C)C3C(=O)CC12C (stereo unspecified) | 172 to 175 °C
Cc1cc(C)cc(C(=O)Cc2ccnc(NC(=O)OC(C)(C)C)c2)c1 | 133 to 136 °C
CC1=N/C(=C\c2c[nH]c3ncccc23)C(=O)N1Cc1ccccc1 | 274 to 275 °C
C#CCOc1ccc(C=O)cc1OC | 95 °C
COc1ccc(-c2ccc(C=O)c3ccoc23)cc1 | 143 to 144 °C
CCCCCCOCCOc1ccc(-c2ccc3c(c2)C=C(C(=O)Nc2ccc(CN(C)C4CCOCC4)cc2)CCS3(=O)=O)cc1 | 180 to 182 °C
c1ccc(CN2CCC(Nc3ccc4[nH]ncc4c3)CC2)cc1 | 150 to 152 °C
CS(=O)CCC(=N)NS(N)(=O)=O (stereo unspecified) | 141 to 144 °C
COc1ccc(C(=O)NNC(=O)c2ccc([N+](=O)[O-])cc2)cc1 | 256 to 258 °C
O[C@@H](CNCc1ccccc1)C1CCCCC1 | 56 to 58 °C
COC(=O)c1ncn2c1c(OC)nc1ccccc12 | 189 to 191 °C
NC(=O)[C@H](CO)NC(=O)c1cccc(NS(=O)(=O)CC2CN(C(c3ccc(Cl)cc3)c3ccc(Cl)cc3)C2)c1 | 245 to 247 °C
CSC1NC(=O)N(c2ccc(C)cc2)C(=O)N1N=C(C)C (stereo unspecified) | 170 to 173 °C
CC(C)(C)OC(=O)N[C@H](Cc1ccc(C(F)(F)F)o1)[C@@H](O)c1ccc(F)cc1 (racemic) | 111 to 112 °C
